The values that follow come from article PMC6588697, “Lugdunin amplifies innate immune responses in the skin in synergy with host- and microbiota-derived factors” (Nature Communications, 2019).

Experiment [1] concerns E. coli. The experiment can be described thus: Antimicrobial testing (CFU) against E. coli. The format is cell-based, Escherichia coli. Conditions: 3 h, mean.
In experiment [2] the test system is P. aeruginosa. The experiment can be described thus: Antimicrobial testing (CFU) against P. aeruginosa. It is filed as cell-based, Pseudomonas aeruginosa. The conditions noted are these: 3 h.
Experiment [3] has as its system P. mirabilis. The experiment can be described thus: Antimicrobial testing (CFU) against P. mirabilis. The format is cell-based, Proteus mirabilis. Conditions: 3 h, mean. Here is the method:
(§1) For bactericidal testing, logarithmically growing staphylococci were resuspended in PBS (Sigma) containing 0.1% TSB (Carl Roth) and colony-forming unit (CFU) was adjusted to 3 × 10^6 CFU/mL. Different concentrations of single peptides and their combinations were diluted in PBS containing 0.1% TSB and incubated with bacteria in triplicates for 3 h at 37 °C and 150 rpm orbital shaking. Subsequently, serial dilutions (10^–1–10^–4) of the bacterial suspensions were prepared in PBS and 20 µL of each dilution was spotted in duplicates onto TSB plates and incubated at 37 °C overnight. The next day, the number of CFU was analyzed and the percentage of viable bacteria was determined by normalizing to the untreated control (100%). Results are illustrated in a S. aureus killing curve. In each experiment, negative control replicates (PBS + 0.1% TSB) as well as sterility control replicates were included.
(§2) Supplementary Figure 7: Efficiency of Lugdunin and DCD -1(L) combinations in 107 […]
(§3) logarithmically grown bacteria were incubated with indicated combinations of 109 lugdunin and DCD-1(L) in PBS containing 0.1% TSB at 37 °C orbital shaking. After 3 110 hours of incubation several dilutions of the bacterial suspensions were plated onto TSB 111 agar pl ates and incubated over night at 37 °C. The next day bacterial CFU were 112 counted. Each experiment was performed in triplicates. Data represent the mean 113 percentage of CFU normalized to the untreated control. Data represent the mean of at 114 least three independent experiments. 115
(§4) (1 picture or pasted object on this page, not shown here)

For experiment [4], the system named is PHKs. The experiment can be described thus: CXCL8 expression in PHKs (qRT-PCR, normalized to actin). It is filed as cell-based, human. The conditions noted are these: PHKs, 5 h. Here is the method:
Fig. 1 Lugdunin sensitizes epithelial cells for innate immune defense. a Primary human keratinocytes (PHKs) were pretreated with S. epidermidis conditioned medium (CM), indicated lugdunin concentrations, or the combination of both for 20 h. Subsequently, cells were infected with S. aureus for 1.5 h followed by cell lysis and determination of colony-forming units (CFUs). Shown is one representative experiment of three independent experiments with six technical replicates ± s.e.m. n.s., not significant. b Dorsal skin of mice was pretreated with S. epidermidis CM, 1.5 µg lugdunin alone or in combination with S. epidermidis CM for 24 h. Subsequently, S. aureus CFUs were determined. Horizontal lines represent the mean of each group ± s.e.m. c PHKs were treated with 2 μM lugdunin or with S. epidermidis CM alone or in combination for 20 h and subsequently expression of indicated antimicrobial peptides (AMPs) (respective protein names in brackets) was analyzed and normalized to actin. Shown is one representative experiment of three independent experiments with two technical replicates ± s.e.m. d PHKs were treated with 2 µM lugdunin or 100 ng/mL Pam2Cys for 5 h and subsequently the concentration of indicated cytokines in the supernatant was analyzed by LEGENDplex^TM (BioLegend). Shown is one representative experiment of three independent experiments with two technical replicates ± s.e.m. e PHKs were treated with increasing concentrations of lugdunin or 100 ng/mL Pam2Cys or Pam3Cys for 5 h and subsequently expression of chemokine (C-X-C motif) ligand 8 (CXCL8) was analyzed and normalized to actin. Shown is one representative experiment of three independent experiments, each with two technical replicates ± s.e.m. f, g Indicated cells were treated with 2 µM lugdunin or 100 ng/mL Pam2Cys as a positive control for 5 h and subsequently the concentration of CXCL8 (f) and interleukin-1α (IL-1α) (g) in the supernatant was analyzed by LEGENDplex^TM (BioLegend) and enzyme-linked immunosorbent assay (ELISA) (R&D Systems). Shown is one representative experiment of three independent experiments with two technical replicates ± s.e.m. Significant differences to control treatments were analyzed by ordinary one-way analysis of variance (ANOVA) followed by Dunnett’s multiple comparisons test (*P < 0.05; **P < 0.01; ***P < 0.001; ****P < 0.0001). n.d. = not detected. Source data are provided as a Source Data file
Fig. 4 Lugdunin amplifies the commensal-induced chemokine (C-X-C motif) ligand (CXCL8) induction. a Primary human keratinocytes (PHKs) were either treated with 2 μM of human antimicrobial peptides (AMPs) (black bars) or lugdunin (blue bars), or 0.8 μM (pro)-gallidermin or nisin (black bars), or in combination with S. epidermidis conditioned medium (CM) (gray and red striped bars) for 5 h, and subsequently expression of CXCL8 was analyzed and normalized to actin. Shown is one representative experiment of three independent experiments with two technical replicates ± s.e.m. b PHKs were treated with 2 μM human AMPs, 2 μM lugdunin, 0.8 μM of the other bacteriocins (gray bars) or the correspondent peptide combinations (white bars), or 50 ng/mL Pam2Cys, 10 ng/mL IL-1α, or S. epidermidis CM as controls (black bars), for 5 h and subsequently expression of CXCL8 was analyzed and normalized to actin. Shown is one representative experiment of three independent experiments with two technical replicates ± s.e.m. Significant differences to control treatments were analyzed by ordinary one-way analysis of variance (ANOVA) followed by Dunnett’s multiple comparisons test (***P < 0.001; ****P < 0.0001). Source data are provided as a Source Data file
After 5 h or 20 h of peptide treatment, PHKs were washed once with PBS, followed by the addition of RNA lysis buffer directly into the well. Total RNA was extracted using the Nucleospin RNA Kit (Macherey-Nagel) according to the manufacturer’s protocol. […]
In general terms: Real-time PCR tracks product formation cycle by cycle.

The test system of experiment [5] is B. subtilis. The experiment can be described thus: Antimicrobial testing (CFU) against B. subtilis. The conditions noted are these: 3 h, mean. The format is cell-based, Bacillus subtilis. The protocol: as §1, §2, §3, §4
Experiment [6] deals with S. epidermidis. The experiment can be described thus: Antimicrobial testing (CFU) against S. epidermidis. The conditions noted are these: 3 h, mean. The format is cell-based, Staphylococcus epidermidis. Here is the method: as §1, §2, §3, §4
Experiment [7] relates to E. faecalis. Description: Antimicrobial testing (CFU) against E. faecalis. It is filed as cell-based, Enterococcus faecalis. Conditions: 3 h, mean.

“And” between values parts separate entries of the source, which are not always exact repeats. Identical values can stand only once.

With “SSLLEKGLDGAKKAVGGLGKLGKDAVEDLESVGKGAVHDVKDVLDSVL [DCD-1L, dermcidin-derived human AMP of eccrine sweat glands]”, the “E. coli CFU normalized to untreated control (1,00)” value in experiment [1] (single peptide 1 µM) was 1,26; in experiment [1] (single peptide 2 µM), 1,92. Further, the “P. aeruginosa CFU normalized to untreated control (1,00)” value in experiment [2] (single peptide 1 µM, PBS + 0.1% TSB, 37 °C, mean of at least three experiments) is 1,39; in experiment [2] (single peptide 2 µM, mean), 1,19. Besides, the “P. mirabilis CFU normalized to untreated control (1,00)” value in experiment [3] (single peptide 1 µM) is 0,95; in experiment [3] (single peptide 2 µM), 1,10. For the same sequence, the “CXCL8 expression normalized to actin” value in experiment [4] (2 µM human AMPs, 2 µM lugdunin, 0.8 µM other bacteriocins or their combinations, 50 ng/mL Pam2Cys, 10 ng/mL IL-1α, S. epidermidis CM, two technical replicates, Fig 4b) is 2.31 and 2.52; in experiment [4] (peptide (2 µM human AMPs or lugdunin, 0.8 µM gallidermin or nisin) in combination with S. epidermidis CM, two technical replicates, Fig 4a) it was 45.0983 and 49.3507; in experiment [4] (single treatment: 2 µM human AMPs or lugdunin, 0.8 µM (pro)-gallidermin or nisin, or S. epidermidis CM, M = 1, two technical replicates (rows), Fig 4a), 2.52 and 2.31. For the same sequence, the figures for the “B. subtilis CFU normalized to untreated control (1,00)” value in experiment [5] (single peptide 1 µM) and in experiment [5] (single peptide 2 µM) were 0,96 and 0,63, respectively. For the same sequence, the “S. epidermidis CFU normalized to untreated control (1,00)” value in experiment [6] (single peptide 1 µM) was 1,43; in experiment [6] (single peptide 2 µM) it was 1,33. Moreover, the “E. faecalis CFU normalized to untreated control (1,00)” value in experiment [7] (single peptide 1 µM) is on record as 1,40; in experiment [7] (single peptide 2 µM) it was 1,55.
